Assay results: publication PMC12524486, “Characterization of α-L-Rhamnosidase and β-D-Glucosidase Subunits of Naringinase Immobilized on a Magnetic Polysaccharide Carrier” (International Journal of Molecular Sciences, 2025)

How the values were obtained:
[1] = system: T1, β-D-glucosidase subunit of free naringinase from A. niger KMS; assay: p-nitrophenol release at […] nm, initial rates, Lineweaver-Burk; type: biochemical, Aspergillus niger; conditions: free enzyme (crude naringinase preparation), 0.1 M buffer pH 4.0, 50 °C, substrate 0.4-1.5 mM
T1 construct: gene beta-D-glucosidase; native secreted enzyme in a crude naringinase preparation (culture fluid ultrafiltered, acetone precipitated)

[2] = system: T2, α-L-rhamnosidase subunit of free naringinase from A. niger KMS; assay: as above; type: biochemical, Aspergillus niger; conditions: free enzyme (crude naringinase preparation), 0.1 M buffer pH 4.0, 50 °C, substrate 0.4-1.5 mM
T2 construct: gene alpha-L-rhamnosidase; native secreted enzyme in a crude naringinase preparation (culture fluid ultrafiltered, acetone precipitated)

| SMILES | Km [1] [µM] | Km [2] [µM] |
| --- | --- | --- |
| O=[N+]([O-])c1ccc(O[C@@H]2O[C@H](CO)[C@@H](O)[C@H](O)[C@H]2O)cc1 [pNPG, 4-nitrophenyl β-D-glucopyranoside] | 2720 ± 78 |  |
| C[C@@H]1O[C@@H](Oc2ccc([N+](=O)[O-])cc2)[C@H](O)[C@H](O)[C@H]1O [pNPR, 4-nitrophenyl α-L-rhamnopyranoside] |  | 2080 ± 35.5 |
